How the values were obtained:
[1] = molecular target: T1, human A2A receptors (Homo sapiens, UniProt P29274); test: Inhibition of human A2A receptor in recombinant HEK293 cells, cAMP quantification (HTRF); format: cell-based; details: read-out: A2A (Category)
T1 construct: expressed in transfected cells; host or cells: HEK293
Protocol: (§1) The functional activities of human A2A and A2B receptors were determined by quantification of cAMP, being the second messenger for adenosine receptors.
(§2) After a 15 min incubation, HTRF reagents (cAMP dynamic 2, Cis Bio) were added and the cellular cAMP levels were determined using the ENVISION (Perkin Elmer) plate reader.

[2] = molecular target: T2, human A2B receptors (Homo sapiens, UniProt P29275); test: Inhibition of human A2B receptor in recombinant HEK293 cells, cAMP quantification (HTRF); format: cell-based; details: read-out: A2B (Category)
T2 construct: expressed in transfected cells; host or cells: HEK293
T2 sequence (P29275 1-332): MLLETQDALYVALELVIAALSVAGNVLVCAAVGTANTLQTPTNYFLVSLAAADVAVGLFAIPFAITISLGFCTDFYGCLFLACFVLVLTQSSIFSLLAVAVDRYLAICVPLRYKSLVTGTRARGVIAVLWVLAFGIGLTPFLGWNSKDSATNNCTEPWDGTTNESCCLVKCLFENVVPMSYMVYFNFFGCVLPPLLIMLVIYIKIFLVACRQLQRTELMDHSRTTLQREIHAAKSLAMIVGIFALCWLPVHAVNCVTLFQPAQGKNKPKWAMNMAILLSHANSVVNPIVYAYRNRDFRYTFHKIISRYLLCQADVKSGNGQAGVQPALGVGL
Protocol: as §1, §2

T1 sequence (P29274 whole entry): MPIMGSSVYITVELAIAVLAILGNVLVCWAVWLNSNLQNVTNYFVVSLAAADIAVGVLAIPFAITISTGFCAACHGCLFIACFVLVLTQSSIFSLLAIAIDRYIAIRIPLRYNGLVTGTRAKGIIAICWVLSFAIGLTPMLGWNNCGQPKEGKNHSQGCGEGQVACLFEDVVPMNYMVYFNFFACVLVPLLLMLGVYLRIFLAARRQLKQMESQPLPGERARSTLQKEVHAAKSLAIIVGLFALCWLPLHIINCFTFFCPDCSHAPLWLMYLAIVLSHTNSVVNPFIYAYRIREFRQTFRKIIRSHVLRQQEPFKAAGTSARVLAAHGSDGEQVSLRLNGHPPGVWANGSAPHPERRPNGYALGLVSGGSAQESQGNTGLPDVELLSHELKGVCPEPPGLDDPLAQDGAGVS

Row | Structure (SMILES) | IC50 [1] | IC50 [2]
1 | O=C(c1cc2c(cn1)c(Nc1ccccc1F)nn2CC(F)(F)F)N1CCCOCC1 [Compound 1, [3-(2-fluoroanilino)-1-(2,2,2-trifluoroethyl)pyrazolo[4,3-c]pyridin-6-yl]-(1,4-oxazepan-4-yl)methanone] | < 100 nM | < 1000 nM
2 | O=C(c1cc2c(cn1)c(Nc1ccccc1)nn2CC(F)(F)F)N1CCCOCC1 [Compound 2, [3-anilino-1-(2,2,2-trifluoroethyl)pyrazolo[4,3-c]pyridin-6-yl]-(1,4-oxazepan-4-yl)methanone] | < 100 nM | < 1000 nM
3 | O=C(c1cc2c(cn1)c(Nc1cccc(F)c1)nn2CC(F)(F)F)N1CCCOCC1 [Compound 6, [3-(3-fluoroanilino)-1-(2,2,2-trifluoroethyl)pyrazolo[4,3-c]pyridin-6-yl]-(1,4-oxazepan-4-yl)methanone] | < 100 nM | < 100 nM
4 | COc1cccc(Nc2nn(CC(F)(F)F)c3cc(C(=O)N4CCCOCC4)ncc23)c1 [Compound 7, [3-(3-methoxyanilino)-1-(2,2,2-trifluoroethyl)pyrazolo[4,3-c]pyridin-6-yl]-(1,4-oxazepan-4-yl)methanone] | < 100 nM | < 100 nM
5 | N#Cc1cccc(Nc2nn(CC(F)(F)F)c3cc(C(=O)N4CCCOCC4)ncc23)c1 [Compound 8, 3-[[6-(1,4-oxazepane-4-carbonyl)-1-(2,2,2-trifluoroethyl)pyrazolo[4,3-c]pyridin-3-yl]amino]benzonitrile] | < 100 nM | < 1000 nM
6 | COc1ccc(Nc2nn(CC(F)(F)F)c3cc(C(=O)N4CCCOCC4)ncc23)cc1 [Compound 11, [3-(4-methoxyanilino)-1-(2,2,2-trifluoroethyl)pyrazolo[4,3-c]pyridin-6-yl]-(1,4-oxazepan-4-yl)methanone] | < 100 nM | < 1000 nM
7 | N#Cc1ccc(Nc2nn(CC(F)(F)F)c3cc(C(=O)N4CCCOCC4)ncc23)cc1 [Compound 13, 4-[[6-(1,4-oxazepane-4-carbonyl)-1-(2,2,2-trifluoroethyl)pyrazolo[4,3-c]pyridin-3-yl]amino]benzonitrile] | < 100 nM | < 1000 nM
8 | O=C(c1cc2c(cn1)c(Nc1cc(F)cc(F)c1)nn2CC(F)(F)F)N1CCCOCC1 [Compound 15, [3-(3,5-difluoroanilino)-1-(2,2,2-trifluoroethyl)pyrazolo[4,3-c]pyridin-6-yl]-(1,4-oxazepan-4-yl)methanone] | < 100 nM | < 1000 nM
9 | Cc1ccc(Nc2nn(CC(F)(F)F)c3cc(C(=O)N4CCCOCC4)ncc23)cc1F [Compound 16, [3-(3-fluoro-4-methylanilino)-1-(2,2,2-trifluoroethyl)pyrazolo[4,3-c]pyridin-6-yl]-(1,4-oxazepan-4-yl)methanone] | < 100 nM | < 100 nM
10 | O=C(c1cc2c(cn1)c(Nc1ccc(F)c(F)c1)nn2CC(F)(F)F)N1CCCOCC1 [Compound 17, [3-(3,4-difluoroanilino)-1-(2,2,2-trifluoroethyl)pyrazolo[4,3-c]pyridin-6-yl]-(1,4-oxazepan-4-yl)methanone] | < 100 nM | < 1000 nM
11 | O=C(c1cc2c(cn1)c(Nc1ccc(F)c(Cl)c1)nn2CC(F)(F)F)N1CCCOCC1 [Compound 18, [3-(3-chloro-4-fluoroanilino)-1-(2,2,2-trifluoroethyl)pyrazolo[4,3-c]pyridin-6-yl]-(1,4-oxazepan-4-yl)methanone] | < 100 nM | < 1000 nM
12 | O=C(c1cc2c(cn1)c(Nc1ccc(Cl)c(F)c1)nn2CC(F)(F)F)N1CCCOCC1 [Compound 19, [3-(4-chloro-3-fluoroanilino)-1-(2,2,2-trifluoroethyl)pyrazolo[4,3-c]pyridin-6-yl]-(1,4-oxazepan-4-yl)methanone] | < 100 nM | < 100 nM
13 | O=C(c1cc2c(cn1)c(Nc1cccc(F)c1)nn2CC(F)(F)F)N1CC2CCC(C1)O2 [Compound 20, [3-(3-fluoroanilino)-1-(2,2,2-trifluoroethyl)pyrazolo[4,3-c]pyridin-6-yl]-(8-oxa-3-azabicyclo[3.2.1]octan-3-yl)methanone] | < 100 nM | < 1000 nM
14 | O=C(c1cc2c(cn1)c(Nc1ccc(F)cc1)nn2CC(F)(F)F)N1CC2CCC(C1)O2 [Compound 21, [3-(4-fluoroanilino)-1-(2,2,2-trifluoroethyl)pyrazolo[4,3-c]pyridin-6-yl]-(8-oxa-3-azabicyclo[3.2.1]octan-3-yl)methanone] | < 100 nM | < 100 nM
15 | O=C(c1cc2c(cn1)c(Nc1ccc(F)cc1)nn2CC(F)(F)F)N1CCC(O)CC1 [Compound 22, [3-(4-fluoroanilino)-1-(2,2,2-trifluoroethyl)pyrazolo[4,3-c]pyridin-6-yl]-(4-hydroxy-1-piperidyl)methanone] | < 100 nM | < 100 nM
16 | O=C(c1cc2c(cn1)c(Nc1cccc(F)c1)nn2CC(F)(F)F)N1CCC(O)CC1 [Compound 23, [3-(3-fluoroanilino)-1-(2,2,2-trifluoroethyl)pyrazolo[4,3-c]pyridin-6-yl]-(4-hydroxy-1-piperidyl)methanone] | < 100 nM | < 100 nM
17 | O=C(c1cc2c(cn1)c(Nc1ccccn1)nn2CC(F)(F)F)N1CCC(O)CC1 [Compound 24, (4-hydroxy-1-piperidyl)-[3-(2-pyridylamino)-1-(2,2,2-trifluoroethyl)pyrazolo[4,3-c]pyridin-6-yl]methanone] | < 100 nM | < 100 nM
18 | O=C(c1cc2c(cn1)c(Nc1cccc(F)c1)nn2CC(F)(F)F)N1[C@@H]2CC[C@H]1C[C@@H](O)C2 [Compound 25, [3-(3-fluoroanilino)-1-(2,2,2-trifluoroethyl)pyrazolo[4,3-c]pyridin-6-yl]-(3-endo-hydroxy-8-azabicyclo[3.2.1]octan-8-yl)methanone] | < 100 nM | < 100 nM
19 | O=C(c1cc2c(cn1)c(Nc1ccc(F)cc1)nn2CC(F)(F)F)N1[C@@H]2CC[C@H]1C[C@@H](O)C2 [Compound 26, [3-(4-fluoroanilino)-1-(2,2,2-trifluoroethyl)pyrazolo[4,3-c]pyridin-6-yl]-(3-endo-hydroxy-8-azabicyclo[3.2.1]octan-8-yl)methanone] | < 100 nM | < 1000 nM
20 | CS(=O)(=O)Cn1nc(Nc2ccc(F)cc2)c2cnc(C(=O)N3CCCOCC3)cc21 [Compound 27, [3-(4-fluoroanilino)-1-(methylsulfonylmethyl)pyrazolo[4,3-c]pyridin-6-yl]-(1,4-oxazepan-4-yl)methanone] | < 100 nM | < 1000 nM
21 | CS(=O)(=O)Cn1nc(Nc2cccc(F)c2)c2cnc(C(=O)N3CCCOCC3)cc21 [Compound 28, [3-(3-fluoroanilino)-1-(methylsulfonylmethyl)pyrazolo[4,3-c]pyridin-6-yl]-(1,4-oxazepan-4-yl)methanone] | < 100 nM | < 100 nM
22 | CS(=O)(=O)Cn1nc(Nc2ccccc2)c2cnc(C(=O)N3[C@@H]4CC[C@H]3C[C@@H](O)C4)cc21 [Compound 29, [3-anilino-1-(methylsulfonylmethyl)pyrazolo[4,3-c]pyridin-6-yl]-(3-endo-hydroxy-8-azabicyclo[3.2.1]octan-8-yl)methanone] | < 100 nM | < 100 nM
23 | CS(=O)(=O)Cn1nc(Nc2ccc(F)cc2)c2cnc(C(=O)N3[C@@H]4CC[C@H]3C[C@@H](O)C4)cc21 [Compound 30, [3-(4-fluoroanilino)-1-(methylsulfonylmethyl)pyrazolo[4,3-c]pyridin-6-yl]-(3-endo-hydroxy-8-azabicyclo[3.2.1]octan-8-yl)methanone] | < 100 nM | < 1000 nM
24 | CS(=O)(=O)Cn1nc(Nc2cccc(F)c2)c2cnc(C(=O)N3[C@@H]4CC[C@H]3C[C@@H](O)C4)cc21 [Compound 31, [3-(3-fluoroanilino)-1-(methylsulfonylmethyl)pyrazolo[4,3-c]pyridin-6-yl]-(3-endo-hydroxy-8-azabicyclo[3.2.1]octan-8-yl)methanone] | < 100 nM | < 100 nM
25 | O=C(c1cc2c(cn1)c(Nc1cccc(F)c1)nn2CC(F)(F)F)N1CCOCC(O)C1 (stereo not shown) [Compound 32, [3-(3-fluoroanilino)-1-(2,2,2-trifluoroethyl)pyrazolo[4,3-c]pyridin-6-yl]-(6-hydroxy-1,4-oxazepan-4-yl)methanone] | < 100 nM | < 1000 nM
26 | O=C(c1cc2c(cn1)c(Nc1ccc(F)cc1)nn2CC(F)(F)F)N1CCOCC(O)C1 (stereo not shown) [Compound 33, [3-(4-fluoroanilino)-1-(2,2,2-trifluoroethyl)pyrazolo[4,3-c]pyridin-6-yl]-(6-hydroxy-1,4-oxazepan-4-yl)methanone] | < 100 nM | < 1000 nM
27 | CC1(O)CCN(C(=O)c2cc3c(cn2)c(Nc2ccc(F)cc2)nn3CC(F)(F)F)CC1 [Compound 34, [3-(4-fluoroanilino)-1-(2,2,2-trifluoroethyl)pyrazolo[4,3-c]pyridin-6-yl]-(4-hydroxy-4-methyl-1-piperidyl)methanone] | < 100 nM | < 1000 nM
28 | CC1(O)CCN(C(=O)c2cc3c(cn2)c(Nc2cccc(F)c2)nn3CC(F)(F)F)CC1 [Compound 35, [3-(3-fluoroanilino)-1-(2,2,2-trifluoroethyl)pyrazolo[4,3-c]pyridin-6-yl]-(4-hydroxy-4-methyl-1-piperidyl)methanone] | < 100 nM | < 1000 nM
29 | O=C(c1cc2c(cn1)c(Nc1cccc(Cl)c1)nn2CC(F)(F)F)N1CCCOCC1 [Compound 37, [3-(3-chloroanilino)-1-(2,2,2-trifluoroethyl)pyrazolo[4,3-c]pyridin-6-yl]-(1,4-oxazepan-4-yl)methanone] | < 100 nM | < 1000 nM
